Laboratory results as given in US20240252496A1, “SELECTIVE HYPOTHALAMUS PERMEABLE HDAC6 INHIBITORS FORTREATMENT OF LEPTIN-RESISTANT OBESITY” (The Children’s Medical Center Corporation, priority 2022, published 2024).
“Also recorded” adds a separate entry of the source.

Legend:
HDAC6 in AgRP neurons = assay: DIO mice with HDAC6 deleted in AgRP neurons (HDAC6^Agrp-Δ); format: in vivo; conditions: chronic treatment
Protocol: Design, validation, and stereotaxic injection of AAV viral vector carrying the guide RNAs targeting the mouse HDAC6 genomic locus. Three designed sgRNAs were concatenated and constructed into an AAV vector carrying a cre-enabled mCherry fluorescent marker.
Following the bilateral injection of AAV-sgHDAC6 into the arcuate nucleus of Agrp-ires-cre::LSL-Cas9-GFP (Agrp-Cre^+/−::Cas9^+/−) or control LSL-Cas9-GFP (Cas9^+/−) mice, immunostaining to detect the expression of mCherry and GFP was performed. AAV-sg-HDAC6 injected Agrp-Cre^+/−::Cas9^+/− (HDAC6^Agrp-Δ) and Cas9^+/− (HDAC6^WT) DIO mice (n=7 for each group) were fasted for 24 hours, and injected with ACY775 (10 mg/kg. i.p). Hourly total dark cycle food intake (g) (n=7 for each group) of these mice after ACY775 injection was measured. Body weight of AAV-sg-HDAC6 injected HDAC6^Agrp-Δ (n=11) and HDAC6^WT (n=6) mice were measured during 3 weeks of ACY775 (10 mg/kg/day, i.p.) treatment. Daily average food intake of HDAC6^Agro-Δ (n=11) and HDAC6^WT (n=6) mice was measured during 3 weeks of ACY775 (10 mg/kg/day, i.p.) treatment. 24-hour food intake average of HDAC Agrp- and HDAC6^WT mice during the 3 weeks of ACY775 treatment was assessed. Serum leptin level (ng/ml) of HDAC6^Agrp-Δ and HDAC6^WT mice after 2 weeks of ACY775 treatment (n=13 for HDAC6^WT and n=18 for HDAC6^Agrp-Δ) was measured. Lean mass (g); fat mass; and fat percentage (%) of HDAC Agrp- and HDAC6^WT DIO mice after 3 weeks of ACY775 treatment was measured by DEXA scan. The HDAC6 inhibitor responsive neurons in the dorsomedial hypothalamus (DMH) were assessed. Immunostaining and quantification of c-Fos expression was performed in the DMH of DIO mice following one-time ACY775 treatment (10 mg/kg, i.p.).

[1] = cited from earlier work; for brain penetrance / BBB permeability: in words
[2] = Brain/plasma ratio, brain and hypothalamus penetrance; format: in vivo; conditions: in words
diet-induced obese mice = conditions: cited from earlier work
HDAC6 [3] = biological target: HDAC6 (Mus musculus (Mouse), UniProt Q9Z2V5); assay: HDAC6 inhibition in hypothalamus and other brain regions (Ac-tubulin); design: species or system mice; conditions: in vivo
Chain of HDAC6 (Mus musculus (Mouse), UniProt Q9Z2V5) (Q9Z2V5 whole entry): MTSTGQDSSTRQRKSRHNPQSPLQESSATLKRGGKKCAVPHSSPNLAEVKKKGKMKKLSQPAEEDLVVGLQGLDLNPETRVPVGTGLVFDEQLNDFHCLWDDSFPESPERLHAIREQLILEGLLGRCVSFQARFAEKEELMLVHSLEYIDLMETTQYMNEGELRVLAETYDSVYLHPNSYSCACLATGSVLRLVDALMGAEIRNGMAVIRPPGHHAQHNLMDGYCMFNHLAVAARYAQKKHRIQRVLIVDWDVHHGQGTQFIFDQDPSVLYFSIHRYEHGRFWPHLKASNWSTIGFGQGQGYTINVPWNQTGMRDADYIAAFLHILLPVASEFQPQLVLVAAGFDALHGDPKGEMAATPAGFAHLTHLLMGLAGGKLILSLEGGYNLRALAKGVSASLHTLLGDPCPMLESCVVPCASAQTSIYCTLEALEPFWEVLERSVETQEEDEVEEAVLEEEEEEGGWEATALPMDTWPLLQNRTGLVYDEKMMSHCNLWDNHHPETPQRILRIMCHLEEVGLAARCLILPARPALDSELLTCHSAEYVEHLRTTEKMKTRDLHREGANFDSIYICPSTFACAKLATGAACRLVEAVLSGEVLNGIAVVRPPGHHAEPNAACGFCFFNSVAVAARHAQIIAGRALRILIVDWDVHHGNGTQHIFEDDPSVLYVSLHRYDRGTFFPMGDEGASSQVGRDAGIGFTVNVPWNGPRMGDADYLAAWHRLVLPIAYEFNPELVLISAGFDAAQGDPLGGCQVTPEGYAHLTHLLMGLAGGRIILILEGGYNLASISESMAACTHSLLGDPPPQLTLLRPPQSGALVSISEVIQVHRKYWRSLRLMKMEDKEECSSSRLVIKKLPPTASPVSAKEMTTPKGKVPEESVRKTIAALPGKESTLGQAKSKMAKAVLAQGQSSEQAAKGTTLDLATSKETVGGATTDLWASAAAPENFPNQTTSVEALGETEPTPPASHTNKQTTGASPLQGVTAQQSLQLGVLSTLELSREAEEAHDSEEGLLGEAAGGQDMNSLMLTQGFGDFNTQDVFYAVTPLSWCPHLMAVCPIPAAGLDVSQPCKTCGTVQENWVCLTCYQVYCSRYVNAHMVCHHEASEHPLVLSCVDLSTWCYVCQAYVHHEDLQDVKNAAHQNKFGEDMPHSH

HDAC6 KO mice = assay: 3-week treatment of DIO WT versus HDAC6 KO mice; format: in vivo; conditions: for body weight, HDAC6 KO vs WT DIO mice: 3 weeks i.p., ACY775 10, ACY738 50, Tubastatin A 25 mg/kg/day
HDAC6 [4] = biological target: HDAC6 (Homo sapiens (Human), UniProt Q9UBN7); conditions: cited from earlier work
Chain of HDAC6 (Homo sapiens (Human), UniProt Q9UBN7) (Q9UBN7 whole entry, species assumed): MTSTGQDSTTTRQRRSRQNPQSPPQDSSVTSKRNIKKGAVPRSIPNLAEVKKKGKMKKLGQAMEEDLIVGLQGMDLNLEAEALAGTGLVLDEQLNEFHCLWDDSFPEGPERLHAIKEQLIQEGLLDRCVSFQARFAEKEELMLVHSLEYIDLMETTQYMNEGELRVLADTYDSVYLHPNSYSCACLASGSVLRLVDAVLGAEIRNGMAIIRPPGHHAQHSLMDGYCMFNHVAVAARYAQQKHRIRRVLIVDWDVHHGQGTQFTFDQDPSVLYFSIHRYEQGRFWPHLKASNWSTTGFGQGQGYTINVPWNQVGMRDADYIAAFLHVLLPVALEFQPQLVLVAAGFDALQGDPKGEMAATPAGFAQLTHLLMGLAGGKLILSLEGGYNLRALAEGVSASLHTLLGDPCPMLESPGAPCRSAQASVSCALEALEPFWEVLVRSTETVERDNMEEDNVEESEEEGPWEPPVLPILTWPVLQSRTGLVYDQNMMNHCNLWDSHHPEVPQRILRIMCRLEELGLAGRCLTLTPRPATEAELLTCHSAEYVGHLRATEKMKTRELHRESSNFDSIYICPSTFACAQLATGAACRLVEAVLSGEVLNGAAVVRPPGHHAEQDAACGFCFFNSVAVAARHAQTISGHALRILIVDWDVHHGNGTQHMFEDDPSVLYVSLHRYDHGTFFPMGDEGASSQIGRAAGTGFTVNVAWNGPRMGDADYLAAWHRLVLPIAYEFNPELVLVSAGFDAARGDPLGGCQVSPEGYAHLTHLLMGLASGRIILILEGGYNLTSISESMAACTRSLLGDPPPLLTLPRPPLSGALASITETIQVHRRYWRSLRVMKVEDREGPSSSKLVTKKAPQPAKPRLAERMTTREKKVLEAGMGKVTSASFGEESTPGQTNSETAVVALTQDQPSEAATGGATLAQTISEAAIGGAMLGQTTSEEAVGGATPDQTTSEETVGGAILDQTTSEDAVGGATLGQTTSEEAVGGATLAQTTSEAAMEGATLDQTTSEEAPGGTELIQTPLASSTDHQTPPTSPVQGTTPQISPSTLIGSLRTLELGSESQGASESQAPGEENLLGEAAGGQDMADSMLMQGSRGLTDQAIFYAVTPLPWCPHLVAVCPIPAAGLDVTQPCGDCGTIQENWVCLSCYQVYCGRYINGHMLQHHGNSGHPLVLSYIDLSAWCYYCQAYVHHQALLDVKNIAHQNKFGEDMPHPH

DIO mice [5] = assay: Chronic treatment of DIO mice (body weight, food intake, leptin, DEXA); format: in vivo; conditions: for food intake and total body fat mass: high fat diet induced mice, summary; for body weight effect of chronic treatment: DIO mice, 3 weeks i.p., bavarostat 10, citarinostat 25, ricolinostat 50 mg/kg
Protocol: DIO mice were treated with ACY775 (10 mg/kg/day, i.p.) for 3 weeks. Daily body weight (g) of DIO mice treated with vehicle (n=17) or ACY775 (n=17) during 3 weeks of treatment was determined. Daily food intake (g) during 3 weeks of vehicle or ACY775 treatment was assessed. 24 hours' food intake per mouse during the first week of vehicle or ACY775 treatment was determined. Serum leptin (ng/ml) levels after 3 weeks of vehicle (n=24) or ACY775 (n=24) treatment was assessed. Lean mass (g), fat mass (g) and fat percentage (%) after 3 weeks of vehicle (n=17) or ACY775 (n=17) treatment measured by Dual-energy X-ray absorptiometry (DEXA) scan. DEXA scans were performed in two different cohorts. Glucose tolerance test (GTT) after 1 week of vehicle (n=33) or ACY775 (n=26) treated DIO mice was assessed. Area of curve (AOC) analysis for GTT was performed. Blood glucose (mg/dl) levels after 1 week of vehicle (n=17) or ACY775 (n=16) were assessed in treated DIO mice. Insulin tolerance test (ITT) was performed after 2 weeks of vehicle (n=31) or ACY775 (n=21) treatment of DIO mice. Serum insulin (ng/ml) levels were measured after 3 weeks of vehicle (n=22) or ACY775 (n=21) in treated DIO mice. A homeostatic model assessment of insulin resistance (HOMA-IR) was analyzed after 3 weeks of vehicle (n=14) or ACY775 (n=13) treated DIO mice.
Food intake was analyzed hourly until 3:00 am. […] DEXA scans were performed in two different cohorts.
DIO mice then were treated with ricolinostat (50 mg/kg, i.p.) for 3 weeks. Daily body weight (g), daily food intake (g), serum leptin (ng/ml) levels after 3 weeks of vehicle (n=8) or ricolinostat (n=8) treatment, lean mass (g); fat mass and fat percentage (%) after 3 weeks of vehicle (n=16) or ricolinostat (n=17) treatment measured by DEXA scan were determined.
Studies were conducted as described above with reference to ACY775.
DIO mice then were treated with bavarostat (10 mg/kg, i.p.) for 3 weeks and daily body weight (g) of DIO mice treated with Veh (n=9) or bavarostat (n=9) measured during the three weeks of treatment period. Daily food intake (g) during 3 weeks of Veh or bavarostat treatment was also measured.
ACY1083 was administered to DIO mice as described in Example 3.

DIO mice [6] = assay: as above; format: in vivo; conditions: oral administration
[7] = 5 mg/kg i.p.; cited from earlier work
DIO mice [8] = assay: Acute leptin co-treatment in DIO mice (body weight, food intake 15 h); format: in vivo; conditions: leptin 1 mg/kg i.p.
Protocol: DIO mice were pretreated with ACY775 (10 mg/kg/day, i.p.) or vehicle for 3 days, which was followed by co-treatment with ACY775 (or vehicle) and leptin (1 mg/kg, i.p.) (or saline) (n=9 for each group), % change in body weight 15 h after leptin treatment, food intake (g) during the 15 h period after leptin treatment. The results in were reproduced in two independent experiments.
Diet induced obese (DIO) mice were pretreated with ACY775 (10 mg/kg/day, i.p.) or vehicle for 3 days, which was followed by co-treatment with ACY775 (or vehicle) and leptin (1 mg/kg, i.p.) (or saline) (n=9 for each group). Mice were evaluated for % change in body weight 15 h after leptin treatment, and food intake (g) during the 15 h period after leptin treatment.
DIO mice were pretreated with ricolinostat (25 mg/kg/day, i.p.) or vehicle for 3 days, which was followed by co-treatment with ricolinostat (or vehicle) and leptin (1 mg/kg, i.p.) (or saline) (n=32 for each group). Change in body weight 15 h after leptin treatment, and food intake (g) during the 15 h period after leptin treatment were determined. The results were reproduced in two independent experiments.

[9] = test system: STAT3^Tyr705 phosphorylation; assay: Leptin-stimulated hypothalamic STAT3 phosphorylation in DIO mice; format: in vivo; conditions: leptin 1 mg/kg i.p.
Protocol: DIO mice were pretreated with ACY775 (10 mg/kg/day, i.p.) or vehicle for 3 days, which was followed by a last injection of ACY775 (or vehicle) in the morning of fourth day. 6 hours later mice were injected with saline or leptin (1 mg/kg, i.p.) and hypothalamus were extracted after 45 minutes following the leptin injection. Representative immunoblots for STAT3^Tyr705 phosphorylation and total STAT3 from the hypothalamus. Quantification of the ratio of p-STAT3^Tyr705 to total-STAT3 signal in the immunoblots. The results were reproduced in three independent experiments. The results were analyzed hourly.
DIO mice were pretreated with ACY775 (10 mg/kg/day, i.p.) or vehicle for 3 days, which was followed by a last injection of ACY775 (or vehicle) in the morning of fourth day. 6 hours later mice were injected with saline or leptin (1 mg/kg, i.p.) and the hypothalamus were extracted after 45 minutes following the leptin injection.
6 hours later mice were injected with saline or leptin (1 mg/kg, i.p.) and hypothalamus were extracted after 45 minutes following the leptin injection. Immunoblots for STAT3^Tyr705 phosphorylation and total STAT3 from the hypothalamus were made to quantify the ratio of p-STAT3^Tyr705 to total-STAT3 signal in the immunoblots. The results were reproduced in two independent experiments.
DIO mice were pretreated with ricolinostat (50 mg/kg/day, i.p.) or vehicle 3 days, which was followed by a last injection of ricolinostat (or vehicle) in the morning of fourth day. 6 hours later mice were injected with saline or leptin (1 mg/kg, i.p.) and the hypothalamus were extracted after 45 minutes following the leptin injection. Immunoblots were performed for STAT3^Tyr705 phosphorylation and total STAT3 from the hypothalamus. The ratio of p-STAT3^Tyr705 to total STAT3 signal in the immunoblots was quantified.

Q: For `CN1CCc2c(c3ccccc3n2Cc2ccc(C(=O)NO)cc2)C1` [Tubastatin A], which “anti-obesity effects in HDAC6^Agrp-Δ vs HDAC6^WT DIO mice” value (HDAC6 in AgRP neurons) is on record?
A: did not change Tubastatin A's effects on suppressing feeding or body weight

Q: And the brain/plasma ratio ([1]; in vivo)?
A: 0.18

Q: And the “brain penetrance / BBB permeability” value [1]?
A: extremely low

Q: And the “penetrance into the hypothalamus” value [2]?
A: neither of which have high penetrance into the hypothalamus

Q: And the “anti-obesity effects reported by Cakir et al.” value (diet-induced obese mice)?
A: reduce food intake, fat mass, hepatic steatosis and improve systemic glucose homeostasis; also recorded: attenuated in animals with a defective central leptin-melanocortin circuitry

Q: And the “HDAC6 inhibition in the hypothalamus” value (HDAC6 [3])?
A: nor show HDAC6 inhibition in the hypothalamus

Q: And the “body weight, HDAC6 KO vs WT DIO mice” value (HDAC6 KO mice)?
A: reduced the body weight of the HDAC6 KO mice the same as the wt mice

Q: And the “fat mass and fat %, HDAC6 KO vs WT” value (HDAC6 KO mice; DEXA)?
A: significantly lower in both wt and HDAC6 KO groups

Q: What about the “lean mass, HDAC6 KO vs WT” value (HDAC6 KO mice; DEXA) of the same compound?
A: not different

Q: And the “blood glucose, serum insulin and leptin levels, HDAC6 KO vs WT” value (HDAC6 KO mice; mouse, in vivo)?
A: reduced equally in the wt and HDAC6 KO group

Q: And the “food intake, HDAC6 KO vs WT DIO mice” value (HDAC6 KO mice; mouse, in vivo)?
A: reduced similarly

Q: And the “glucose tolerance and insulin sensitivity (GTT, ITT), HDAC6 KO vs WT” value (HDAC6 KO mice; mouse, in vivo)?
A: improved glucose tolerance and increased insulin sensitivity in both wt and the HDAC6 KO mice

Q: Which “brain penetrance / BBB permeability” value [1] does the source give for `O=C(NO)c1cnc(NC2(c3ccccc3)CCC(F)(F)CC2)nc1` [ACY1083] here?
A: brain-penetrating

Q: What about the “selectivity for HDAC6 than all other classes of HDAC isoforms” value (HDAC6 [4]) of the same compound?
A: 260 fold

Q: What about the “food intake and total body fat mass” value (DIO mice [5]) of the same compound?
A: significant reduction of food intake and total body fat mass

Q: And the “body weight over 14 days” value (DIO mice [6])?
A: significant decrease in body weight; also recorded: Significant weight loss; also recorded: reduced body weight

Q: Which Cmax [7] does the source give for `CC1CCC(C(C)(C2CCC(C)CC2)C2CCC(C(C)C(C)CCCCC(C)C(C)C)CC2)CC1` (centres unmarked) [ACY257] here?
A: 1047 ng/mL

Q: What about the “Plasma AUClast” value [7] of the same compound?
A: 871 (5 mg/kg i.p.) hr*ng/ml

Q: And the T1/2 [7]?
A: 8.15 h

Q: What about the “AUC Brain/AUC Plasma Ratio” value ([1]; in vivo) of the same compound?
A: 0.01

Q: What about the “brain penetrance / BBB permeability” value [1] of the same compound?
A: limited brain expression

Q: And the “penetrance into the hypothalamus” value [2]?
A: high penetrance into the arctuate nucleus of the hypothalamus

Q: And the “body weight effect of chronic treatment” value (DIO mice [5])?
A: as effective as ACY775 in reducing body weight; also recorded: Significant weight loss; also recorded: as effective as ACY775 in lowering body weight

Q: What about the “body weight effect of chronic treatment” value (DIO mice [5]; listed as ACY 257) of the same compound?
A: greatly reduces body weight

Q: What about the “food intake and total body fat mass” value (DIO mice [5]) of the same compound?
A: significant reduction of food intake and total body fat mass

Q: What about the “HDAC6 inhibition in other brain regions (cerebrum, frontal lobe, temporal lobe, brainstem)” value (HDAC6 [3]) of the same compound?
A: does not inhibit HDAC6 in other brain regions

Q: What about the “HDAC6 inhibition in the hypothalamus” value (HDAC6 [3]) of the same compound?
A: inhibits HDAC6 in the hypothalamus

Q: For “leptin: peptide hormone, product of the obese (ob) gene”, which “body weight, leptin alone” value (DIO mice [8]) is on record?
A: did not significantly alter their bodyweight; also recorded: did not change their bodyweight

Q: What about the “food intake, leptin alone” value (DIO mice [8]) of the same compound?
A: did not significantly change the food intake

Q: What about the “hypothalamic STAT3^Tyr705 phosphorylation, leptin in vehicle-treated mice” value [9] of the same compound?
A: did not significantly increase STAT3^Tyr705 phosphorylation

Q: Which “brain penetrance / BBB permeability” value [1] does the source give for `CN(Cc1ccc(C(=O)NO)cc1F)CC12CC3CC(CC(C3)C1)C2` [Bavarostat, 4-(((((3r,5r,7r)-adamantan-1-yl)methyl)(methyl)amino)methyl)-3-fluoro-N-hydroxybenzamide] here?
A: high brain penetrance

Q: What about the “penetrance into the hypothalamus” value [2] of the same compound?
A: high penetrance of the hypothalamus

Q: And the “body weight effect of chronic treatment” value (DIO mice [5])?
A: Significant weight loss; also recorded: statistically significantly effective in reducing food intake and body weight

Q: And the “food intake and total body fat mass” value (DIO mice [5])?
A: significant reduction of food intake and total body fat mass

Q: What about the “body weight, HDAC6 KO vs WT DIO mice” value (HDAC6 KO mice) of the same compound?
A: treatment of wild type mice but not HDAC6 Knockout animals with bavarostat caused weight loss

Q: For `O=C(CCCCCCNC(=O)c1cnc(N(c2ccccc2)c2ccccc2Cl)nc1)NO` [Citarinostat], which “brain penetrance / BBB permeability” value [1] is on record?
A: good brain penetrance

Q: And the “body weight effect of chronic treatment” value (DIO mice [5])?
A: not effective in reducing body weight

Q: And the “body weight effect of chronic treatment” value (DIO mice [5]; listed as citarinostat)?
A: ineffective weight lowering effect

Q: What about the “HDAC6 inhibition in other brain regions (cerebrum, frontal lobe, temporal lobe, brainstem)” value (HDAC6 [3]) of the same compound?
A: inhibits HDAC6 in other brain regions

Q: And the “HDAC6 inhibition in the hypothalamus” value (HDAC6 [3])?
A: not in the hypothalamus

Q: What about the “HDAC6 inhibition in the hypothalamus” value (HDAC6 [3]; listed as citarinostat) of the same compound?
A: does not show HDAC6 inhibition in the AGP neurons in the hypothalamus
